Tested on: Japanese medaka (Oryzias latipes)
Assay: Fish short-term reproduction assay (FSTRA, OECD TG229), 21-day flow-through exposure
Conditions: for Fertility rate (%) / Mortality (%) Female / Mortality (%) Male / Number of fertilized eggs / Number of total eggs / SSC Female / SSC Male / VTG (ng/mg of liver) Female / VTG (ng/mg of liver) Male: 21 days; for GSI Female / GSI Male / HSI Female / HSI Male / Length Female / Length Male / Weight Female / Weight Male: at completion of exposure; for effect on fecundity (number of total eggs), in words: within the test concentrations
In short: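 Run to OECD TG229: mature NIES-R medaka pairs (3♂/3♀ per vessel, 4 vessels per treatment plus dilution water control) were dosed by continuous flow-through for 21 days. Test concentrations were spaced 2- to 5-fold. Daily spawned eggs were counted under the microscope for fertilized versus unfertilized.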

[1] = highest concentration, 21-day exposure

## CCC(C)(C)c1ccc(O)cc1 [PTH, 4‐tert‐Pentylphenol]
Hepatic VTG, 21-day exposure
  LOEC on VTG induction in male (in molarity): 590 nM
Hepatic VTG, 21-day exposure, measured conc.
  LOEC for VTG induction in males: 96.5 µg/L
[1]
  effect on male GSI, in words: significant decreasing
In vivo
  LOEC (in molarity) for male VTG: times higher than that of E2: 14,000 times
  LOEC on male VTG induction: times smaller than the LOEC for CMP: > 8 times
Measured conc. 96.5 μg/L
  Fertility rate (%): 92%
  Mortality (%) Female: 8.3%
  Mortality (%) Male: 0%
  Number of fertilized eggs: 18
  Number of total eggs: 19 ± 6.6 /female/day
  SSC Female: 0 ± 0
  SSC Male: 98 ± 8.0
  VTG (ng/mg of liver) Female: 1,680 ± 240 ng/mg of liver
  VTG (ng/mg of liver) Male: 83.2 ± 106 ng/mg of liver
  GSI Female: 9.5%
  GSI Male: 0.74%
  HSI Female: 4.3%
  HSI Male: 2.5%
  Length Female: 34.8 mm
  Length Male: 35.8 mm
  Weight Female: 470 mg
  Weight Male: 532 mg
Measured conc. 342 μg/L
  Fertility rate (%): 93%
  Mortality (%) Female: 8.3%
  Mortality (%) Male: 0%
  Number of fertilized eggs: 17
  Number of total eggs: 18 ± 3.6 /female/day
  SSC Female: 0 ± 0
  SSC Male: 94 ± 14
  VTG (ng/mg of liver) Female: 2,820 ± 1,540 ng/mg of liver
  VTG (ng/mg of liver) Male: 621 ± 265 ng/mg of liver
  GSI Female: 8.1%
  GSI Male: 0.67%
  HSI Female: 4.5%
  HSI Male: 3.1%
  Length Female: 34.5 mm
  Length Male: 34.7 mm
  Weight Female: 476 mg
  Weight Male: 516 mg
Measured conc. 1,100 μg/L
  Fertility rate (%): 74%
  Mortality (%) Female: 17%
  Mortality (%) Male: 8.3%
  Number of fertilized eggs: 10
  Number of total eggs: 13 ± 3.6 /female/day
  SSC Female: 0 ± 0
  SSC Male: 95 ± 5.0
  VTG (ng/mg of liver) Female: 5,770 ± 2,880 ng/mg of liver
  VTG (ng/mg of liver) Male: 9,740 ± 800 ng/mg of liver
  GSI Female: 8.4%
  GSI Male: 0.51%
  HSI Female: 4.7%
  HSI Male: 4.1%
  Length Female: 33.3 mm
  Length Male: 34.5 mm
  Weight Female: 438 mg
  Weight Male: 498 mg
21-day exposure
  effect on fecundity (number of total eggs), in words: significant decrease

## C#C[C@]1(O)CC[C@H]2[C@@H]3CCC4=CC(=O)CC[C@@H]4[C@H]3CC[C@@]21CC [LNG, Levonorgestrel]
21-day exposure, measured conc.
  LOEC on female SSC (papillary process formation on anal fin): 42.2 ng/L
[1]
  concentration at which female hepatic VTG was significantly decreased: 226 ng/L
male, measured conc. 7.3 ng/L
  GSI Male: 0.82%
  HSI Male: 2.0%
  Length Male: 38.4 mm
  Weight Male: 610 mg
male, measured conc. 42.2 ng/L
  GSI Male: 0.89%
  HSI Male: 2.2%
  Length Male: 38.8 mm
  Weight Male: 691 mg
male, measured conc. 226 ng/L
  GSI Male: 0.76%
  HSI Male: 2.1%
  Length Male: 38.3 mm
  Weight Male: 610 mg
Measured conc. 7.3 ng/L
  Fertility rate (%): 87%
  Mortality (%) Female: 0%
  Mortality (%) Male: 0%
  Number of fertilized eggs: 25
  Number of total eggs: 29 ± 5.8 /female/day
  SSC Female: 0 ± 0
  SSC Male: 112 ± 4.5
  VTG (ng/mg of liver) Female: 2,370 ± 207 ng/mg of liver
  VTG (ng/mg of liver) Male: 2.8 ± 4.1 ng/mg of liver
Measured conc. 42.2 ng/L
  Fertility rate (%): 82%
  Mortality (%) Female: 8%
  Mortality (%) Male: 0%
  Number of fertilized eggs: 17
  Number of total eggs: 21 ± 3.9 /female/day
  SSC Female: 44 ± 10
  SSC Male: 121 ± 8.6
  VTG (ng/mg of liver) Female: 2,350 ± 673 ng/mg of liver
  VTG (ng/mg of liver) Male: 0.8 ± 0.3 ng/mg of liver
Measured conc. 226 ng/L
  Fertility rate (%): 82%
  Mortality (%) Female: 0%
  Mortality (%) Male: 0%
  Number of fertilized eggs: 5.1
  Number of total eggs: 5.9 ± 5.2 /female/day
  SSC Female: 83 ± 5.4
  SSC Male: 116 ± 10
  VTG (ng/mg of liver) Female: 1,120 ± 561 ng/mg of liver
  VTG (ng/mg of liver) Male: 0.6 ± 0.1 ng/mg of liver
21-day exposure
  effect on fecundity (number of total eggs), in words: significant difference from the control

— publication PMC8359193, “Summary of reference chemicals evaluated by the fish short‐term reproduction assay, OECD TG229, using Japanese Medaka, Oryzias latipes” (Journal of Applied Toxicology, 2021)
